Assay results published in PMC9358547 (2022).

Key:
[1] = tested on: HTPu-var-1-G4 (human telomere variant-1, 23-mer) (DNA, G4) TAGGGTTAGGGTTAGGGTTAGGG; test: tryptophan fluorescence quenching titration; details: 30 mM buffer pH 7.0, 0.5 mM EDTA, 25 °C, 4 μM peptide titrated with DNA
[2] = tested on: HTPu-var-1-G4 (human telomere variant-1, 23-mer) (DNA, G4) TAGGGTTAGGGTTAGGGTTAGGG; test: electrophoretic mobility shift assay with complementary strand HTPy-var-1; details: 100 mM K+; 30 mM sodium cacodylate pH 7.0, 1 mM EDTA; DNA:peptide 1:120, 1:160; excess HTPy-var-1 added afterwards
[3] = tested on: HTPu-var-1-G4 (human telomere variant-1, 23-mer) (DNA, G4) TAGGGTTAGGGTTAGGGTTAGGG; test: UV melting at 295 nm; details: 30 mM sodium cacodylate pH 7.0, 0.5 mM EDTA, 4 μM DNA
[4] = tested on: HTPu-var-1-G4 (human telomere variant-1, 23-mer) (DNA, G4) TAGGGTTAGGGTTAGGGTTAGGG; test: circular dichroism titration; details: 30 mM sodium cacodylate pH 7.0, 0.5 mM EDTA, 6 μM DNA, apparent constant

Question: Which results are given for H-VAQKW-OH?
Answer: Kb ([1]; 100 mM K+): 0.71 ± 0.42 µM; Kb ([1]; 100 mM Na+): 0.46 ± 0.11 µM; binding [2]: yes; ΔTm ([3]; 100 mM K+, DNA:peptide 1:40, non-monotonic (66.1 at 1:80)): -1.0 °C; ΔTm ([3]; 100 mM Na+, DNA:peptide 1:230): -0.9 °C; Kb ([4]; 100 mM K+): 290 ± 10 µM; Kb ([4]; 100 mM Na+): 260 ± 30 µM
